# Measured values as given in patent US9243254B2, “Method for transforming a bacterium belonging to the streptococcus genus by natural competence” (priority 2009, dated 2016).
# Experiments:
# [1] = tested on: LMD9-Δblp::PcomX-luxABΔshp316::P32-cat; assay: Natural transformation in CDM of the shp316-deleted strain upon addition of synthetic peptides (test A); type: cell-based, Streptococcus thermophilus; settings: 1 μM synthetic peptide; for Transformation rate, With peptide addition: 1 μg/mL pGIUD0855ery, CDM, erythromycin selection; for Restoration of the competence defect: result in words
# Protocol: A mutant strain of LMD-9 in which the shp316 gene (which is the gene encoding the peptide Shp316) has been inactivated, such as strain LMD9-Δblp::PcomX-luxABΔshp316::P32-cat (see Example 2 for details on this strain) is pre-cultivated in M17-lactose medium. The cells of the preculture are harvested (5000 g, 9 minutes, 20° C.) and washed twice in Chemically Defined Medium (CDM, see Annex I) and then resuspended in CDM. The washed cells are diluted in fresh CDM medium to obtain an optical density of 0.05 at 600 nm, and then incubated at 37° C. After 1.5 h of incubation, the culture is separated in 2 aliquots of 10 mL and 0 or 1000 nM of peptide are added in the culture samples. Finally, each 10 mL-aliquot is divided in 2 samples of 5 mL each. One of the 2 samples receives 1 μg/mL pGIUD0855ery, a plasmid bearing an erythromycin resistance gene. The competence phenotype of the samples is studied by performing natural transformation experiments as described in example 1. The cultures are grown for 6 hours and serial dilutions are plated on the surface of M17-lactose agar medium containing or not 2.5 μg/mL of erythromycin. The transformation rate in the presence or absence of peptide is calculated for each sample; it is expressed as the ratio of erythromycin-resistant cells among the total bacterial population.
# The experimental strategy is described below. Strain LMD9-Δblp::PcomX-luxABΔshp316::P32-cat is precultivated in M17-lactose medium. The cells of the preculture were harvested (5000 g, 9 minutes, 20° C.) and washed twice in CDM and then resuspended in CDM. The washed cells are diluted in fresh CDM to obtain an optical density of 0.05 at 600 nm, and then incubated at 37° C. After 1.5 h of incubation, in one set of experiment, 1 μM of one of the tested synthetic peptides and 1 μg/mL of pGIUD0855ery were added to the culture; whereas 1 μg/mL of pGIUD0855ery but no synthetic peptide was added to the second set of experiment. The cultures were grown during 6 hours and serial dilutions were plated on the surface of M17-lactose agar medium containing 2.5 μg/mL of erythromycin to measure transformation efficiency.
# Ability of peptides derived from Shp316 to restore the competence defect of LMD9-Δblp::PcomX-luxABΔshp316::P32-cat was further investigated focusing on the synthetic peptide PYFAGCL. Experimental work was performed as described above except that various concentrations of PYFAGCL were used: 0 nM, 1 nM, 10 nM, 100 nM, 500 nM, 1 μM, 2.5 μM and 5 μM. […]
# [2] = tested on: S. thermophilus CNRZ1066; assay: Natural transformation in CDM upon addition of synthetic peptide; type: cell-based, Streptococcus thermophilus
# Protocol: (§1) Similarly to the protocol used in example 4, strains LMD-9, LMG18311, CNRZ1066 and JIM8777 were pre-cultivated in M17-lactose medium. The cells of the precultures were harvested (5000 g, 9 minutes, 20° C.) and washed twice in CDM and then resuspended in CDM. The washed cells were diluted in fresh CDM medium to obtain an optical density of 0.05, and then incubated at 37° C. After 1.5 h of incubation, in one set of experiment, 1 μM of one of the tested synthetic peptides and 1 μg/mL of pGIUD0855ery DNA (in case of S. thermophilus strains), or 1 μg/ml of pG+host09 DNA (in case of S. salivarius strains) were added to the culture, whereas 1 μg/mL of DNA but no synthetic peptide was added to the second set of experiment. The cultures were grown during 6 hours and serial dilutions were plated on the surface of M17-lactose agar medium containing 2.5 μg/mL of erythromycin to measure transformation efficiency. Transformed S. thermophilus and S. salivarius cells are selected at 37° C. and 29° C., respectively.
# Similarly to the protocol used in example 4, various S. thermophilus strains, including LMD-9, CNRZ1066 and LMG18311 used as controls, were pre-cultivated in M17-lactose medium. The cells of the precultures were harvested (5000 g, 9 minutes, 20° C.) and washed twice in CDM and then resuspended in CDM. The washed cells were diluted in fresh CDM medium to obtain an optical density of 0.05, and then incubated at 37° C. After 1.5 h of incubation, in one set of experiment, 1 μM of one of the tested synthetic peptides (LPYFAGCL) (SEQ ID NO: 85) and 1 μg/mL of pGIUD0855cat DNA were added to the culture, whereas 1 μg/mL of DNA but no synthetic peptide was added to the second set of experiment. Plasmid pGIUD0855cat is a pUC18-derivative containing a chloramphenicol resistance cassette flanked by 1-kb fragments corresponding to the upstream and downstream regions of stu0855. Upon transformation, it promotes the genetic replacement of stu0855 by P32-cat through homologous recombination (FIG. 7). The cultures were grown during 6 hours and serial dilutions were plated on the surface of M17-lactose agar medium containing 5 μg/mL of chloramphenicol to measure transformation efficiency. Transformed S. thermophilus cells were selected at 37° C.; when transformants were obtained, the transformation efficiency was calculated and is given in Table 9.
# Day 2: • Centrifuge Day 1—culture (centrifugation parameters: 5000 g, 9 minutes, 15° C.) and perform two washing steps with one volume (10 mL) of CDM (centrifugation parameters: 5000 g, 9 minutes, 15° C.). • Dilute the culture in 10 mL CDM to obtain an OD600nm of 0.05. • A small volume of S. thermophilus cultures (300 μL) is then transferred in white microplate with a transparent bottom (655095; Greiner, Alphen aid Rijn, The Netherlands) and is grown at 37° C. Luminescence at 595 nm and optical density at 600 nm are recorded with the automatic Synergy HT multi-mode microplate reader. The luciferase activity catalysed by LuxAB requires the presence of nonanal as substrate. In this experimental set-up, nonanal (Acros Organics ref. 204-688-5) is supplied to the cultures by placing 50 μL of a solution containing 1% nonanal diluted in mineral oil in the spaces between the wells of a covered microplate (11). […] The luminescence and absorbance are scanned every 10 minutes during 6 hours. • To perform a competence experiment, 1 μg of donor DNA is added in the 300 μL samples in the beginning of incubation. […]
# [3] = tested on: S. salivarius JIM8777; assay: as above; type: cell-based, Streptococcus salivarius
# Protocol: as §1
# Day 2: • Centrifuge Day 1—culture (centrifugation parameters: 5000 g, 9 minutes, 15° C.) and perform two washing steps with one volume (10 mL) of CDM (centrifugation parameters: 5000 g, 9 minutes, 15° C.). • Dilute the culture in 10 mL CDM to obtain an OD600nm of 0.05. • A small volume of S. thermophilus cultures (300 μL) is then transferred in white microplate with a transparent bottom (655095; Greiner, Alphen aid Rijn, The Netherlands) and is grown at 37° C. Luminescence at 595 nm and optical density at 600 nm are recorded with the automatic Synergy HT multi-mode microplate reader. The luciferase activity catalysed by LuxAB requires the presence of nonanal as substrate. In this experimental set-up, nonanal (Acros Organics ref. 204-688-5) is supplied to the cultures by placing 50 μL of a solution containing 1% nonanal diluted in mineral oil in the spaces between the wells of a covered microplate (11). The nonanal present in the solution will become volatile and there will be an equilibrium between the concentration of nonanal present in the air and in the culture samples. The luminescence and absorbance are scanned every 10 minutes during 6 hours. • To perform a competence experiment, 1 μg of donor DNA is added in the 300 μL samples in the beginning of incubation. […] In case of the sample that received DNA, make different 10-fold dilutions of the sample and plate 100 μL on the same solid selective medium. Check the viability of the cells in the samples by plating 10 μL of serial 10-fold dilutions of the cultures on M17, lactose 1% medium. Transformants are picked following 24 h of incubation at 37° C. in anaerobic conditions (gaspak BBL). […]
# [4] = 1 μM PYFTGCL, 1 μg/mL pG+host09
Substance,"Transformation rate, With peptide addition [1]",other results
ILPYFAGCL (fragment) [synthetic peptide corresponding to a C-terminal fragment of Shp316],3.42 × 10^−3,Restoration of the competence defect [1]: allowed to restore the competence defect
"LPYFAGC (fragment) [synthetic peptide, fragment of Shp316 without the carboxy-terminal leucine]",<10^−8,
ILPYFAG (fragment) [synthetic peptide corresponding to a fragment of Shp316 without the C-terminal CL],<10^−8,
PYFAG (fragment) [synthetic peptide corresponding to a fragment of Shp316 without the C-terminal CL],<10^−8,
AILPYFAGCL (fragment) [synthetic peptide corresponding to a C-terminal fragment of Shp316],2.21 × 10^−3,Restoration of the competence defect [1]: allowed to restore the competence defect
"PYFAGC (fragment) [synthetic peptide, fragment of Shp316 without the carboxy-terminal leucine]",<10^−8,
"AILPYFAGC (fragment) [synthetic peptide, fragment of Shp316 without the carboxy-terminal leucine]",<10^−8,
"ILPYFAGC (fragment) [synthetic peptide, fragment of Shp316 without the carboxy-terminal leucine]",<10^−8,
PYFTGCL (fragment) [alanine in position 4 replaced by threonine],,"Transformation rate, With peptide addition [2, 4]: 3.48 × 10^−7; Complementation of the transformation defect in CDM ([2]; 1 μM peptide, result in words): able to complement the transformation defect; Transformation rate, With peptide addition [3, 4]: 5.77 × 10^−7; Complementation of the transformation defect in CDM ([3]; 1 μM peptide, result in words): able to complement the transformation defect"
